Data as given in EP4707277A1, “NOVEL HETEROCYCLIC AMINE DERIVATIVES AND PHARMACEUTICAL COMPOSITION COMPRISING SAME” (Daewoong Pharmaceutical Co., Ltd., priority 2023, dated 2024).
Like-named read-outs stand apart in the source and are kept apart here.

What was measured:
ITK = biological target: T1, ITK (Homo sapiens, UniProt Q08881); assay: Inhibitory activity against ITK, ADP-Glo Kinase system (Promega); assay type: biochemical
T1 construct: purchased Signalchem I13-11G-10
T1 sequence (Q08881 1-620): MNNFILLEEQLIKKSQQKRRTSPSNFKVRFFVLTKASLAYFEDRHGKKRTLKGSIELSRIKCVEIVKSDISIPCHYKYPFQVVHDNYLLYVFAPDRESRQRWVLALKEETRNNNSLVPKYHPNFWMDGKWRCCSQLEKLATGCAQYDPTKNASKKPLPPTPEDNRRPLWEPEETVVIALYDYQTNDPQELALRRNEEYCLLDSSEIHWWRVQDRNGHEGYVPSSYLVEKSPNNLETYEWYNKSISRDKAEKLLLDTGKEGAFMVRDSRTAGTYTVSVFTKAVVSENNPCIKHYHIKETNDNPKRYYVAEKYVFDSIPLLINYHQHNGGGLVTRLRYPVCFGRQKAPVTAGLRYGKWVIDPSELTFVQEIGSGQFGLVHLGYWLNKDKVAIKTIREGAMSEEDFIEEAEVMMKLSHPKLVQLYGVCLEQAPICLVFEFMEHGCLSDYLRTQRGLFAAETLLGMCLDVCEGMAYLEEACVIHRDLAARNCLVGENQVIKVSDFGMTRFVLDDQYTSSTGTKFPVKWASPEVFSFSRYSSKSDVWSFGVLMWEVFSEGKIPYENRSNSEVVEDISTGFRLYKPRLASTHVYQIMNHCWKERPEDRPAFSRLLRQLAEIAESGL
Outline: (§1)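 IC50 values were fitted from kinase reactions run for 1 h at 30°C with either 1 mM ATP or ATP at Km (10 µM for BTK, 25 µM for ITK). Reactions used 0.2 µg/µl poly(Glu4,Tyr1), recombinant human enzyme (BTK 10 ng, ITK 4 ng per reaction) in Tris pH 7.5 Mn/Mg buffer with 1% DMSO. ADP formed was read by ADP-Glo luminescence.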

BTK = biological target: T2, BTK (Homo sapiens, UniProt Q06187); assay: Inhibitory activity against BTK, ADP-Glo Kinase system (Promega); assay type: biochemical
T2 construct: purchased Signalchem B10-10H
T2 sequence (Q06187 whole entry): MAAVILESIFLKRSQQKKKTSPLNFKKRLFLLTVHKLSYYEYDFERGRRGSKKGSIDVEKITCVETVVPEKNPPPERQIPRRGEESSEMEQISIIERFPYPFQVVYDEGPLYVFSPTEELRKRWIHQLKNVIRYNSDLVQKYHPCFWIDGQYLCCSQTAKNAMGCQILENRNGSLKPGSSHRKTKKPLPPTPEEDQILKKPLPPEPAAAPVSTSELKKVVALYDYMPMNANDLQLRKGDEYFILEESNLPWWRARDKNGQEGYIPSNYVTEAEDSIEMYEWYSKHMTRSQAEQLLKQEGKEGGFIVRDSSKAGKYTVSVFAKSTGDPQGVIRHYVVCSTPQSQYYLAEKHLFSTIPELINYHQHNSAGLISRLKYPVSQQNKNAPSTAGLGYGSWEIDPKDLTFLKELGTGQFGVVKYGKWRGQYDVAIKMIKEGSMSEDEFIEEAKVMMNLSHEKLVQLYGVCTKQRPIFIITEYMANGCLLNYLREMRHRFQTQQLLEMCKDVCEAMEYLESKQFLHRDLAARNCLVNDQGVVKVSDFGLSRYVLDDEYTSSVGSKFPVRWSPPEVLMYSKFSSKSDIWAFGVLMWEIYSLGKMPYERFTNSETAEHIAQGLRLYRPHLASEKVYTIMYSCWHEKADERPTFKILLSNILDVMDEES
Outline: as §1

[1] = 1mM ATP, read-out: ITK IC50(nM) 1mM ATP
[2] = 1mM ATP, read-out: BTK IC50(nM) 1mM ATP
[3] = Km ATP (ITK: 25uM), read-out: ITK IC50(nM) Km ATP
[4] = Km ATP (BTK: 10 uM), read-out: BTK IC50(nM) Km ATP

IC50 (ITK; [1]) [nM]	IC50 (BTK; [2]) [nM]	IC50 (ITK; [3]) [nM]	IC50 (BTK; [4]) [nM]	Structure (SMILES)
> 500	100 to 500			C=CC(=O)N1CCCC12CCC(Oc1nc(Nc3ncc(C)s3)cc3c1ccn3CC(C)C)C2 (centres unmarked) [Example 201, 1-(7-((1-isobutyl-6-((5-methylthiazol-2-yl)amino)-1H-pyrrolo[3,2-c]pyridin-4-yl)oxy)-1-azaspiro[4.4]nonan-1-yl)prop-2-en-1-one]
20 to 100	≤ 20			C=CC(=O)N1CC[C@H](Oc2nc(Nc3cc(C)ncn3)cc3c2ccn3C(C)C)C1 [Example 101, (S)-1-(3-((1-isopropyl-6-((6-methylpyrimidin-4-yl)amino)-1H-pyrrolo[3,2-c]pyridin-4-yl)oxy)pyrrolidin-1-yl)prop-2-en-1-one]
≤ 20	≤ 20			C=CC(=O)N1C[C@@H](C)[C@H](Oc2nc(Nc3ncc(C)s3)cc3c2ccn3C(C)C)C1 (racemic) [Example 92, rac-1-((3S,4R)-3-((1-isopropyl-6-((5-methylthiazol-2-yl)amino)-1H-pyrrolo[3,2-c]pyridin-4-yl)oxy)-4-methylpyrrolidin-1-yl)prop-2-en-1-one]
		≤ 20	≤ 20	C=CC(=O)Nc1cccc(-c2nc(Nc3ncc(C)s3)cc3c2ccn3C)c1OC [Example 52, N-(2-methoxy-3-(1-methyl-6-((5-methylthiazol-2-yl)amino)-1H-pyrrolo[3,2-c]pyridin-4-yl)phenyl)acrylamide]
> 500	> 500			C/C=C/C(=O)N1CC[C@H](Oc2nc(Nc3ncc(C)s3)cc3c2ccn3CC(C)C)C1 [Example 226, (S,E)-1-(3-((1-isobutyl-6-((5-methylthiazol-2-yl)amino)-1H-pyrrolo[3,2-c]pyridin-4-yl)oxy)pyrrolidin-1-yl)but-2-en-1-one]
≤ 20	≤ 20			C=CC(=O)N1C[C@@H](Oc2nc(Nc3ncc(C)s3)cc3c2ccn3C)C[C@@H]1C [Example 185, 1-((2S,4S)-2-methyl-4-((1-methyl-6-((5-methylthiazol-2-yl)amino)-1H-pyrrolo[3,2-c]pyridin-4-yl)oxy)pyrrolidin-1-yl)prop-2-en-1-one]
≤ 20	≤ 20			C=CC(=O)N1CC[C@H](Oc2nc(Nc3ncc(C)s3)cc3c2ccn3C2CCCC2)C1 [Example 99, (S)-1-(3-((1-cyclopentyl-6-((5-methylthiazol-2-yl)amino)-1H-pyrrolo[3,2-c]pyridin-4-yl)oxy)pyrrolidin-1-yl)prop-2-en-1-one]
20 to 100	20 to 100			C=CC(=O)N1C[C@H](F)[C@H](Oc2nc(Nc3cc(C)[nH]n3)cc3c2ccn3CC(C)C)C1 [Example 196, 1-((3S,4R)-3-fluoro-4-((1-isobutyl-6-((5-methyl-1H-pyrazol-3-yl)amino)-1H-pyrrolo[3,2-c]pyridin-4-yl)oxy)pyrrolidin-1-yl)prop-2-en-1-one]
≤ 20	≤ 20			C=CC(=O)N1C[C@@H](F)[C@H](Oc2nc(Nc3ncc(C)s3)cc3c2ccn3CC)C1 [Example 154, 1-((3R,4R)-3-((1-ethyl-6-((5-methylthiazol-2-yl)amino)-1H-pyrrolo[3,2-c]pyridin-4-yl)oxy)-4-fluoropyrrolidin-1-yl)prop-2-en-1-one]
≤ 20	≤ 20			C=CC(=O)N1CC[C@H](Oc2nc(Nc3ncc(C)s3)cc3c2ccn3[C@@H](C)CC)C1 [Example 111, 1-((S)-3-((1-((S)-sec-butyl)-6-((5-methylthiazol-2-yl)amino)-1H-pyrrolo[3,2-c]pyridin-4-yl)oxy)pyrrolidin-1-yl)prop-2-en-1-one]
> 500	> 500			C=C(F)C(=O)N1CC[C@H](Oc2nc(Nc3ncc(C)s3)cc3c2ccn3CC(C)C)C1 [Example 224, (S)-2-fluoro-1-(3-((1-isobutyl-6-((5-methylthiazol-2-yl)amino)-1H-pyrrolo[3,2-c]pyridin-4-yl)oxy)pyrrolidin-1-yl)prop-2-en-1-one]
		≤ 20	≤ 20	C=CC(=O)N1CC=C(c2nc(Nc3ncc(C)s3)cc3c2ccn3[C@@H](C)CC)CC1 [Example 13, (S)-1-(4-(1-(sec-butyl)-6-((5-methylthiazol-2-yl)amino)-1H-pyrrolo[3,2-c]pyridin-4-yl)-3,6-dihydropyridin-1(2H)-yl)prop-2-en-1-one]
20 to 100	100 to 500			C=CC(=O)Nc1cc(-c2nc(Nc3ncc(C)s3)cc3c2ccn3CCC(C)(C)C)c(F)cc1F [Example 69, N-(5-(1-(3,3-dimethylbutyl)-6-((5-methylthiazol-2-yl)amino)-1H-pyrrolo[3,2-c]pyridin-4-yl)-2,4-difluorophenyl)acrylamide]
≤ 20	≤ 20			C=CC(=O)N1C[C@@H](F)[C@H](Oc2nc(Nc3ncc(C)s3)cc3c2ccn3CC(C)CC)C1 (stereo partly drawn) [Example 173, 1-((3R,4R)-3-fluoro-4-((1-(2-methylbutyl)-6-((5-methylthiazol-2-yl)amino)-1H-pyrrolo[3,2-c]pyridin-4-yl)oxy)pyrrolidin-1-yl)prop-2-en-1-one]
		≤ 20	≤ 20	C=CC(=O)Nc1c(F)ccc(-c2nc(Nc3ncc(C)s3)cc3c2ccn3C)c1F [Example 57, N-(2,6-difluoro-3-(1-methyl-6-((5-methylthiazol-2-yl)amino)-1H-pyrrolo[3,2-c]pyridin-4-yl)phenyl)acrylamide]
≤ 20	≤ 20			C=CC(=O)N1CC(C)(Oc2nc(Nc3ncc(C)s3)cc3c2ccn3CCC)C1 [Example 176, 1-(3-methyl-3-((6-((5-methylthiazol-2-yl)amino)-1-propyl-1H-pyrrolo[3,2-c]pyridin-4-yl)oxy)azetidin-1-yl)prop-2-en-1-one]
100 to 500	20 to 100			C=CC(=O)N1CCCC12CC(Oc1nc(Nc3ncc(C)s3)cc3c1ccn3CC(C)C)C2 (centres unmarked) [Example 200, 1-(2-((1-isobutyl-6-((5-methylthiazol-2-yl)amino)-1H-pyrrolo[3,2-c]pyridin-4-yl)oxy)-5-azaspiro[3.4]octan-5-yl)prop-2-en-1-one]
		≤ 20	≤ 20	C=CC(=O)N1CC(C)C(Oc2nc(Nc3ncc(C)s3)cc3c2ccn3CC(C)C)C1 (centres unmarked) [Example 116, 1-(3-((1-isobutyl-6-((5-methylthiazol-2-yl)amino)-1H-pyrrolo[3,2-c]pyridin-4-yl)oxy)-4-methylpyrrolidin-1-yl)prop-2-en-1-one]
		≤ 20	≤ 20	C=CC(=O)N1CC=C(c2nc(Nc3ncc(C)s3)cc3c2ccn3C(F)F)CC1 [Example 21, 1-(4-(1-(difluoromethyl)-6-((5-methylthiazol-2-yl)amino)-1H-pyrrolo[3,2-c]pyridin-4-yl)-3,6-dihydropyridin-1(2H)-yl)prop-2-en-1-one]
20 to 100	≤ 20			C=CC(=O)N1CCC[C@H](Oc2nc(Nc3ncc(C)s3)cc3c2ccn3C2CCCC2)C1 [Example 151, (S)-1-(3-((1-cyclopentyl-6-((5-methylthiazol-2-yl)amino)-1H-pyrrolo[3,2-c]pyridin-4-yl)oxy)piperidin-1-yl)prop-2-en-1-one]
		20 to 100	≤ 20	C=CC(=O)Nc1cc(-c2nc(Nc3ncc(C)s3)cc3c2ccn3CC(F)F)ccc1F [Example 76, N-(5-(1-(2,2-difluoroethyl)-6-((5-methylthiazol-2-yl)amino)-1H-pyrrolo[3,2-c]pyridin-4-yl)-2-fluorophenyl)acrylamide]
≤ 20	≤ 20			C=CC(=O)N1CC(C)(Oc2nc(Nc3ncc(C)s3)cc3c2ccn3CCC(C)C)C1 [Example 177, 1-(3-((1-isopentyl-6-((5-methylthiazol-2-yl)amino)-1H-pyrrolo[3,2-c]pyridin-4-yl)oxy)-3-methylazetidin-1-yl)prop-2-en-1-one]
≤ 20	≤ 20			C=CC(=O)N1C2C=C(c3nc(Nc4ncc(C)s4)cc4c3ccn4CC3CC3)CC1CC2 (centres unmarked) [Example 39, 1-(3-(1-(cyclopropylmethyl)-6-((5-methylthiazol-2-yl)amino)-1H-pyrrolo[3,2-c]pyridin-4-yl)-8-azabicyclo[3.2.1]oct-2-en-8-yl)prop-2-en-1-one]
20 to 100	≤ 20			C=CC(=O)N1CCC[C@H](Oc2nc(Nc3ncc(C)s3)cc3c2ccn3C(C)C)C1 [Example 84, (S)-1-(3-((1-isopropyl-6-((5-methylthiazol-2-yl)amino)-1H-pyrrolo[3,2-c]pyridin-4-yl)oxy)piperidin-1-yl)prop-2-en-1-one]
		> 500	> 500	C=CC(=O)N1CC=C(c2nc(Nc3nc(C)cs3)cc3c2ccn3C(C)C)CC1 [Example 42, 1-(4-(1-isopropyl-6-((4-methylthiazol-2-yl)amino)-1H-pyrrolo[3,2-c]pyridin-4-yl)-3,6-dihydropyridin-1(2H)-yl)prop-2-en-1-one]
